What was measured:
Plasma Stability = assay type: in vitro ADME, human
Outline: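 Parent compound quantified by LC-MS/MS after acetonitrile precipitation, reported as percent of control remaining (triplicate). Incubation: 1 hour, 37° C, fresh human plasma, compound at 1 μM.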

[1] = Caco-2 Permeability Assay; assay type: in vitro ADME, human; details: human
Outline: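 Bidirectional transport at 37 °C for 90 min, 10 μM donor concentration, with or without Pgp inhibitor, across 21-day Caco-2 monolayers with TEER >600 […] in HEPES-buffered HBSS, pH 7.4. LC-MS/MS of donor and receiver samples gives Papp, B→A/A→B efflux ratio and mass recovery.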

[2] = Stability in Simulated Gastric Fluid (SGF); assay type: in vitro ADME; set-up: key: % parent compound remaining relative to 0-minute sample
Outline: (§1)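 Percent of parent remaining relative to time zero was measured by LC-MS/MS over 0–60 min at 37 °C, 150 rpm. Test compound was 2 μg/mL final in pepsin-containing SGF, pH 1.2, or pancreatin-containing SIF, pH 6.8. Degradation half-life was derived from the log-linear decay where enough points allowed.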

[3] = Stability in Simulated Intestinal Fluid (SIF); assay type: in vitro ADME; set-up: key: % parent compound remaining relative to 0-minute sample
Outline: as §1

[4] = Caco-2, pH 7.4, donor 10 μM, 90 minutes, 37° C., direction not given
[5] = % remaining at 1 h, human plasma, 1 μM, 37° C.
[6] = % remaining at 1 h, SGF with pepsin pH 1.2, 2 μg/mL, 37° C.
[7] = % remaining at 1 h, SIF with pancreatin pH 6.8, 2 μg/mL, 37° C.
[8] = Caco-2, pH 7.4, no unit printed at the place (tables the 9th table and the 10th table have no head)
[9] = % remaining at 1 h in human plasma
[10] = Caco-2, pH 7.4, Caco-2 monolayer
[11] = % remaining at 1 h in simulated gastric fluid
[12] = % remaining at 1 h in simulated intestinal fluid

In the case of `COC(=O)[C@H](CCCCNC(=O)OC(C)(C)C)NC(=O)OCn1ccc2c1c(=O)[nH]c(=S)n2CCOC(C)C` [Example 102, Methyl (2S)-6-{[(tert-butoxy)carbonyl]amino}-2-{[({4-oxo-1-[2-(propan-2-yloxy)ethyl]-2-sulfanylidene-1H,2H,3H,4H,5H-pyrrolo[3,2-d]pyrimidin-5-yl}methoxy)carbonyl]amino}hexanoate], the “human Plasma stability” value (Plasma Stability; % remaining at 1 h, human plasma, 1 μM, 37° C., listed as EXAMPLE 102) is reported as 97%, the Papp at 90 min, 10 µM [1, 4] is reported as 1.46 ×10⁻⁶ cm/s and the SGF ([2]; % remaining at 1 h, SGF with pepsin pH 1.2, 2 μg/mL, 37° C., listed as EXAMPLE 102) is reported as 75%. For the same compound, the SIF ([3]; % remaining at 1 h, SIF with pancreatin pH 6.8, 2 μg/mL, 37° C., listed as EXAMPLE 102) was 96%.
With `COC(=O)[C@H](CCCCNC(=O)OC(C)(C)C)NC(=O)n1ccc2c1c(=O)[nH]c(=S)n2CCOC(C)C` [Example 103, Methyl (2S)-6-{[(tert-butoxy)carbonyl]amino}-2-({4-oxo-1-[2-(propan-2-yloxy)ethyl]-2-sulfanylidene-1H,2H,3H,4H,5H-pyrrolo[3,2-cl]pyrimidine-5-carbonyl}amino)hexanoate] the “human Plasma stability” value (Plasma Stability; [5]) was 92%, the Papp at 90 min, 10 µM [1, 4] was 13.5 ×10⁻⁶ cm/s and the SGF [2, 6] was 96%. The SIF [3, 7] was 96%.
For `COCCOCCOC(=O)OCSc1nc(=O)c2c(ccn2COC(=O)OCCOCCOC)n1CCOC(C)C` [Example 104, (2-{[{{[2-(2-methoxyethoxy)ethoxy]carbonyl}oxy)methyl]sulfanyl}-4-oxo-1-[2-(propan-2-yloxy)ethyl]-1H,4H,5H-pyrrolo[3,2-d]pyrimidin-5-yl)methyl 2-(2-methoxyethoxy)ethyl carbonate], the “human Plasma stability” value (Plasma Stability; [5]) was 18%, the Papp at 90 min, 10 µM [1, 8] was 0.276 ×10⁻⁶ cm/s and the SGF [2, 6] was 96%. For the same compound, the SIF [3, 7] was 70%.
For `COCCOCCOC(=O)OCn1ccc2c1c(=O)[nH]c(=S)n2CCOC(C)C` [Example 105, 2-(2-methoxyethoxy)ethyl {4-oxo-1-[2-(propan-2-yloxy)ethyl]-2-sulfanylidene-1H,2H,3H,4H,5H-pyrrolo[3,2-d]pyrimidin-5-yl}methyl carbonate], the “human Plasma stability” value (Plasma Stability; [5]) was 14%, the Papp at 90 min, 10 µM [1, 8] was 24.3 ×10⁻⁶ cm/s and the SGF [2, 6] was 95%. The SIF [3, 7] was 84%.
For `CC(C)OCCn1c(=S)[nH]c(=O)c2c1ccn2COC(=O)N[C@H](C(=O)OC(C)(C)C)C(C)C` [Example 107, tert-butyl (2S)-3-methyl-2-{[{{4-oxo-1-[2-(propan-2-yloxy)ethyl]-2-sulfanylidene-1H,2H,3H,4H,5H-pyrrolo[3,2-d]pyrimidin-5-yl}methoxy)carbonyl]amino}butanoate], the “human Plasma stability” value (Plasma Stability; [5]) was 86%, the Papp at 90 min, 10 µM [1, 8] was 11.5 ×10⁻⁶ cm/s and the SGF [2, 6] was 93%. For the same compound, the SIF [3, 7] was 92%.
For `CC(C)OCCn1c(=S)[nH]c(=O)c2c1ccn2COC(=O)N[C@H](C(=O)O)C(C)C` [Example 109, (2S)-3-methyl-2-{[({4-oxo-1-[2-(propan-2-yloxy)ethyl]-2-sulfanylidene-1H,2H,3H,4H,5H-pyrrolo[3,2-d]pyrimidin-5-yl}methoxy)carbonyl]amino}butanoic acid], the “human Plasma stability” value (Plasma Stability; [5]) was 100%, the Papp at 90 min, 10 µM [1, 4] was 0.094 ×10⁻⁶ cm/s and the SGF [2, 6] was 94%. It also gave an SIF [3, 7] of 96%.
In the case of `COC(=O)[C@H](CCCCN)NC(=O)OCn1ccc2c1c(=O)[nH]c(=S)n2CCOC(C)C.O=C(O)C(F)(F)F` [Example 110, trifluoroacetic acid methyl (2S)-6-amino-2-{[{{4-oxo-1-[2-(propan-2-yloxy)ethyl]-2-sulfanylidene-1H,2H,3H,4H,5H-pyrrolo[3,2-d]pyrimidin-5-yl}methoxy)carbonyl]amino}hexanoate], the “human Plasma stability” value (Plasma Stability; [5]) is reported as 62%, the Papp at 90 min, 10 µM [1, 4] is reported as 0.142 ×10⁻⁶ cm/s and the SGF [2, 6] is reported as 81%. The SIF [3, 7] was 45%.
With `COC(=O)[C@H](CCCCNC(=O)[C@@H](NC(=O)OC(C)(C)C)C(C)C)NC(=O)OCn1ccc2c1c(=O)[nH]c(=S)n2CCOC(C)C` [Example 111, methyl (2S)-6-[(2S)-2-{[(tert-butoxy)carbonyl]amino}-3-methylbutanamido]-2-{[{{4-oxo-1-[2-(propan-2-yloxy)ethyl]-2-sulfanylidene-1H,2H,3H,4H,5H-pyrrolo[3,2-d]pyrimidin-5-yl}methoxy)carbonyl]amino}hexanoate] the “human Plasma stability” value (Plasma Stability; [5]) was 85%, the Papp at 90 min, 10 µM [1, 4] was 0.575 ×10⁻⁶ cm/s and the SGF [2, 6] was 87%. For the same compound, the SIF [3, 7] was 74%.
In the case of `CC(C)OCCn1c(=S)[nH]c(=O)c2c1ccn2C(C)OC(=O)N(CC(F)(F)F)CC(F)(F)F` (centres unmarked) [Example 112, 1-{4-oxo-1-[2-(propan-2-yloxy)ethyl]-2-sulfanylidene-1H,2H,3H,4H,5H-pyrrolo[3,2-d]pyrimidin-5-yl}ethyl N,N-bis(2,2,2-trifluoroethyl)carbamate], the “human Plasma stability” value (Plasma Stability; [5]) is reported as 99%, the Papp at 90 min, 10 µM [1, 4] is reported as 21.1 ×10⁻⁶ cm/s and the SGF [2, 6] is reported as 100%. For the same compound, the SIF [3, 7] was 100%.
In the case of `CC(C)OCCn1c(=S)[nH]c(=O)c2c1ccn2C(C)OC(=O)N(C)CC(=O)OC(C)(C)C` (centres unmarked) [Example 113, tert-butyl 2-{methyl [(1-{4-oxo-1-[2-(propan-2-yloxy)ethyl]-2-sulfanylidene-1H, 2H,3H,4H,5H-pyrrolo[3,2-d]pyrimidin-5-yl}ethoxy)carbonyl]amino}acetate], the “human Plasma stability” value (Plasma Stability; [5]) is reported as 99%, the Papp at 90 min, 10 µM [1, 4] is reported as 7.86 ×10⁻⁶ cm/s and the SGF [2, 6] is reported as 44%. It also gave an SIF [3, 7] of 96%.
For `COC(=O)[C@H](CCCCNC(=O)[C@@H](N)C(C)C)NC(=O)OCn1ccc2c1c(=O)[nH]c(=S)n2CCOC(C)C.O=C(O)C(F)(F)F` [Example 114, trifluoroacetic acid methyl (2S)-6-[(2S)-2-amino-3-methylbutanamido]-2-{[{{4-oxo-1-[2-(propan-2-yloxy)ethyl]-2-sulfanylidene-1H,2H,3H,4H,5H-pyrrolo[3,2-d]pyrimidin-5-yl}methoxy)carbonyl]amino}hexanoate], the “human Plasma stability” value (Plasma Stability; [5]) was 93%, the Papp at 90 min, 10 µM [1, 4] was 0.102 ×10⁻⁶ cm/s and the SGF [2, 6] was 98%. It also gave an SIF [3, 7] of 89%.
With `CC(C)OCCn1c(=S)[nH]c(=O)c2c1ccn2C(C)OC(=O)c1ccccc1` (centres unmarked) [Example 115, 1-{4-oxo-1-[2-(propan-2-yloxy)ethyl]-2-sulfanylidene-1H,2H,3H,4H,5H-pyrrolo[3,2-d]pyrimidin-5-yl}ethyl benzoate] the “human Plasma stability” value (Plasma Stability; [5]) was 59%, the Papp at 90 min, 10 µM [1, 4] was 8.05 ×10⁻⁶ cm/s and the SGF [2, 6] was 63%. The SIF [3, 7] was 67%.
For `CC(C)OCCn1c(=S)[nH]c(=O)c2c1ccn2COC(=O)c1ccccc1` [Example 116, {4-oxo-1-[2-(propan-2-yloxy)ethyl]-2-sulfanylidene-1H, 2H,3H,4H,5H-pyrrolo[3,2-d]pyrimidin-5-yl}methylbenzoate], the “human Plasma stability” value (Plasma Stability; [5]) was 1%, the Papp at 90 min, 10 µM [1, 4] was 6.41 ×10⁻⁶ cm/s and the SGF [2, 6] was 99%. It also gave an SIF [3, 7] of 46%.
In the case of `CC(C)OCCn1c(=S)n(COC(=O)c2ccccc2)c(=O)c2c1ccn2COC(=O)c1ccccc1` [Example 117, {3-[(benzoyloxy)methyl]-4-oxo-1-[2-(propan-2-yloxy)ethyl]-2-sulfanylidene-1H,2H,3H,4H,5H-pyrrolo[3,2-d]pyrimidin-5-yl}methylbenzoate], the “human Plasma stability” value (Plasma Stability; [5]) is reported as 20%, the Papp at 90 min, 10 µM [1, 4] is reported as 5.76 ×10⁻⁶ cm/s and the SGF [2, 6] is reported as 100%. The SIF [3, 7] was 79%.
With `CC(C)OCCn1c(=S)n2c(=O)c3c1ccn3COC(=O)C(C)(C)CCCCC(C)(C)C(=O)OC2` [Example 118, 5,5,10,10-Tetramethyl-16-[2-(propan-2-yloxy)ethyl]-15-sulfanylidene-3,12-dioxa-1,14,16-triazatricyclo[12.5.2.0^{17,20}]henicosa-17(20),18-diene-4,11,21-trione] the “human Plasma stability” value (Plasma Stability; [5]) was 73%, the Papp at 90 min, 10 µM [1, 4] was 6.6 ×10⁻⁶ cm/s and the SGF [2, 6] was 94%. It also gave an SIF [3, 7] of 76%.
For `CC(C)OCCn1c2nc(=O)c3c1ccn3COC(=O)C(C)(C)CCCCC(C)(C)C(=O)OCS2` [Example 119, 8,8,13,13-Tetramethyl-22-[2-(propan-2-yloxy)ethyl]-6,15-dioxa-17-thia-4,19,22-triazatricyclo[16.3.1.0^{4,21}]docosa-1(21),2,18-triene-7,14,20-trione], the “human Plasma stability” value (Plasma Stability; [5]) was 90%, the Papp at 90 min, 10 µM [1, 4] was 31.7 ×10⁻⁶ cm/s and the SGF [2, 6] was 94%. For the same compound, the SIF [3, 7] was 98%.
For `CC(C)OCCn1c(=S)[nH]c(=O)c2c1ccn2COC(=O)OCCOCCNC(=O)OC(C)(C)C` [Example 120], the “human Plasma stability” value (Plasma Stability; [9]) was 30% remaining, the Papp at 90 min, 10 µM [1, 10] was 14.9 ×10⁻⁶ cm/s and the SGF [2, 11] was 83% remaining. It also gave an SIF [3, 12] of 64% remaining.
With `CC(C)OCCn1c(SCOC(=O)OCCOCCNC(=O)OC(C)(C)C)nc(=O)c2c1ccn2COC(=O)OCCOCCNC(=O)OC(C)(C)C` [Example 121] the “human Plasma stability” value (Plasma Stability; [9]) was 34% remaining, the Papp at 90 min, 10 µM [1, 10] was 1.19 ×10⁻⁶ cm/s and the SGF [2, 11] was 69% remaining. For the same compound, the SIF [3, 12] was 56% remaining.
With `CC(C)OCCn1c(=S)n(COC(=O)OCCOCCNC(=O)OC(C)(C)C)c(=O)c2c1ccn2COC(=O)OCCOCCNC(=O)OC(C)(C)C` [Example 122] the “human Plasma stability” value (Plasma Stability; [9]) was 50% remaining, the Papp at 90 min, 10 µM [1, 10] was 19.3 ×10⁻⁶ cm/s and the SGF [2, 11] was 85% remaining. For the same compound, the SIF [3, 12] was 22% remaining.
With `CC(C)OCCn1c(=S)[nH]c(=O)c2c1ccn2COC(=O)OCCOCCN.O=C(O)C(F)(F)F` [Example 123] the “human Plasma stability” value (Plasma Stability; [9]) was 65% remaining, the Papp at 90 min, 10 µM [1, 10] was 2.44 ×10⁻⁶ cm/s and the SGF [2, 11] was 97% remaining. The SIF [3, 12] was 1% remaining at.
